Where two headings read alike, the source gives them in different places.
Legend:
PfNF54 ABS parasites = experiment: SYBR Green I-based proliferative assay, PfNF54 ABS parasites; type: cell-based, Plasmodium falciparum; settings: ABS, SYBR Green I, 96 h; mean ± S.E., N = 3 (no S.E.: N = 1)
Experimental: (§1) The parasites were incubated under drug […]
(§2) incubation, parasite survival was determined by adding equal volumes of parasite suspension (100 µL) and SYBR Green I lysis buffer (0.2% µL/mL of 10 000x SYBR Green I, 20 mM Tris-HCl, pH 7.5, 5 mM EDTA, 0.008% saponin (w/v) and 0.08% Triton x-100). This was incubated for 1 hour at room temperature in the dark. […]

[1] = system: early-stage gametocytes (NF54-PfS16-GFP-Luc); experiment: Luciferase reporter assay, early-stage gametocytes; type: cell-based, Plasmodium falciparum; settings: for EG (% inhibition) 1 µM / EG (% inhibition) 5 µM: single biological repeat; for IC50: early (II/III) gametocytes, luciferase, 48 h, read-out: EG IC50
Experimental: (§3) All the complexes were tested for their early- and late-stage gametocyte activity in a dual-point assay (1 μM and 5 μM). […]
(§4) 1.5.In vitro activity against gametocyte stages
(§5) PfNF54 gametocytes were prepared and isolated according to the method reported by Reader […]
(§6) The in vitro gametocyte activity of the synthesized complexes was determined using a luciferase reporter line-based assay.
(§7) NF54-PfS16-GFP-Luc parasites were used for the stage-specific assessment of gametocytocidal activity. Early-stage gametocyte (stage I-III) experiments were performed on day 5 (representing >90% of early-stage and late-stage gametocyte (stages IV/V) experiments were performed on day 10. In each experiment, assays were set up with the use of 2-3% […]
(§8) Luciferase activity was determined in 30 µL parasite lysates by adding luciferin substrate (30 µL) (Promega Luciferase Assay System) at room temperature. […]

[2] = system: late-stage gametocytes (NF54-PfS16-GFP-Luc); experiment: Luciferase reporter assay, late-stage gametocytes; type: cell-based, Plasmodium falciparum; settings: for LG (% inhibition) 1 µM / LG (% inhibition) 5 µM: single biological repeat
Experimental: as §3, §4, §5, §6, §7, §8

[3] = system: Chinese hamster ovary (CHO) cell line; experiment: MTT cytotoxicity assay; type: cell-based; settings: cytotoxicity, MTT, 48 h; N, n = 1, 3; read-out: CHO IC50
Experimental: 1.6.In vitro cytotoxicity assay
A 3-(4,5-dimethylthiazol-2-yl)-2,5-diphenyltetrazoliumbromide (MTT) assay was used to screen the metal complexes against the mammalian Chinese hamster ovarian (CHO) cell line.
A stock solution of each compound (2 mg/mL) in DMSO was prepared and kept at -20 °C until needed. Emetine was used as a reference drug. A starting concentration of 100 µg/mL was used, and serially diluted ten-fold using a complete medium to give the lowest concentration of 0.001 µg/mL (6 dilutions). The plates containing the CHO cells under drug pressure were […]
Plates containing the drug and cell suspension were developed by adding 25 μL of sterile MTT (Thermo Fisher Scientific) (25 µL) to each well, followed by 4 h […]
of incubation at room temperature in the dark. The plates were then centrifuged, and the supernatant was removed via aspiration. Sample absorbance was read at a wavelength of 540 […]
analysis via GraphPad Prism v.4.0 software. The IC50 values were determined for each compound were determined from the dose-response curves. […]

[4] = Single-point microsomal metabolic stability, mouse; type: in vitro ADME; settings: for Microsomal metabolic stability (% remaining after 30 min) Mouse: mouse liver microsomes, 1 µM
Experimental: (§9) 1.8. Microsomal metabolic stability studies […]
(§10) rat IGS, Xenotech), and mouse (male mouse CD1, Xenotech) liver microsomes (0.4 mg/ml) for 30 min at 37 °C. Reactions were quenched by adding ice-cold acetonitrile containing […]
(§11) disappearance of the parent compound. Half-life, clearance, and hepatic excretion ratios were determined using standard equations.6,7 Propranolol. […]

[5] = Single-point microsomal metabolic stability, human; type: in vitro ADME; settings: human liver microsomes; for Microsomal metabolic stability (% remaining after 30 min) Human: 1 µM
Experimental: as §9, §10, §11

Cyclic voltammetry = type: physicochemical; settings: for Epa1: anodic peak potential; for Epa1 / Epc1: 0.1 V/s; for Epc1: cathodic peak potential; for Epc2: second nonreversible reduction
Text: It is known that Fe^2+/Fe^3+ redox chemistry has an important role in the bioactivity of ferrocene derivatives.[33] The production of reactive oxygen species (ROS) is one of the modes of action of ferroquine and other ferrocene derivatives[34] and is linked to the correlation between their bioactivity and electrochemical behavior. We determined whether a similar correlation could be made for the mixed-ligand platinum(II) complexes reported herein given that metal centers have the potential to be oxidized and reduced. The electrochemistry of the complexes was studied using cyclic voltammetry (CV), which uses a triangular potential waveform. The CV experiments were performed in either dry MeOH or DMF containing tetrabutylammonium chloride (TBACl) as the supporting electrolyte. The working electrode was glassy carbon with a platinum wire as the counter electrode and Ag/AgCl as the reference. The anodic (Epa) and cathodic (Epc) peak potentials at 0.1 V/s and half-wave potentials (E1/2) were measured (Table 3). All of the tested complexes undergo reversible one-electron Pt^2+/Pt^+ reductions (Figures S38–S46). Complexes C2, C4, and C8 undergo a second nonreversible reduction (Epc2), which is most likely ligand-based and linked to reductions of the substituent on the bpy. Looking at SAR2, the more electron-withdrawing the substituent, the […] the E1/2 (V vs Fe/Fe^+) value was. This trend was expected, as a more electron-withdrawing substituent reduces the electron density around the metal center, making it easier for the metal to be reduced from Pt^2+ to Pt^+. […] This is also the case for other bpy-containing platinum(II) complexes that only undergo reductions.[35],[36] […]
For the cyclic voltammetry experiments a solution of the test compound (1 x 10-3) in DMSO (3 mL) is added to the electrolyte solution (0.1 M tetrabutylammonium chloride (TBACl) in DMSO). The electrochemical measurements were obtained using a Basi Epsilon Eclipse Electrochemical Analyzer Potentiostat and the CV graphs were generated using Excel. The working electrode was glassy carbon (GC) with platinum wire as the counter electrode (CE) and Ag/AgCl as the reference. […]

ABS parasites = experiment: Dual point activity against ABS parasites; type: cell-based, Plasmodium falciparum; settings: single biological repeat
Text: Table S2: Dual point activity of platinum(II) complexes against ABS parasites, early- and late-
stage gametocytes. Values are averaged from technical triplicates performed for a single

PfK1 ABS parasites = type: cell-based, Plasmodium falciparum; settings: for IC50: ABS, SYBR Green I, 96 h, mean ± S.E.; for RI (resistance index): RI = PfK1 IC50/PfNF54 IC50
Experimental: as §1, §2

[6] = Kinetic solubility by HPLC (pH 6.5); settings: for Aqueous solubility pH 6.5: kinetic, HPLC
Experimental: 1.7. Kinetic solubility by HPLC (pH 6.5)
Solubility was measured at pH 6.5 using an adapted miniaturized shake-flask method, in 96-well plate format.4,5 Briefly, 4 µL of a 10 mM stock in DMSO was added to a 96-well plate and evaporated using a GeneVac system. Phosphate buffer pH 6.5 was then added to the wells […]
At the end of this incubation, the […]
in the analysis plate. Analysis was then performed by HPLC-DAD and the solubility of each sample was determined from the corresponding calibration curve. […]

PfNF54 = experiment: 72 h pLDH assay, PfNF54 (precursor compounds); type: cell-based, Plasmodium falciparum
Experimental: Lastly, the pharmacological effect of substitution with a methyl group at different positions on the bpy ring was determined (SAR4). Changing from the 4,4′-positions (C2) to the 5,5′-positions (C14) improved the PfNF54 activity by 5-fold, whereas changing to the 6,6′-positions (C15) decreased the activity by 2-fold.

[7] = late (IV/V) gametocytes, luciferase, 48 h, read-out: LG IC50
[8] = half-wave potential corrected to ferrocene

## OCCN(CCO)C1=NC(c2ccccc2)=[O+][Pt-2]2([S]1)[n+]1ccc(C(F)(F)F)cc1-c1cc(C(F)(F)F)cc[n+]12.[Cl-] [C8]
PfNF54 ABS parasites
  IC50: > 5 µM
[1]
  EG (% inhibition) 1 µM: 26.2 % inhibition
  EG (% inhibition) 5 µM: 50.0 % inhibition
  IC50: > 20 µM
[2]
  LG (% inhibition) 1 µM: 80.6 % inhibition
  LG (% inhibition) 5 µM: 85.8 % inhibition
[2]; gametocyte stage not specified, read-out: gametocidal activity IC50
  IC50: < 5 µM
[2]; [7]
  IC50: 0.38 µM
[3]
  IC50: > 50 µM
[4]
  Microsomal metabolic stability (% remaining after 30 min) Mouse: 46 % remaining
[5]
  Microsomal metabolic stability (% remaining after 30 min) Human: 47 % remaining
Cyclic voltammetry
  Epa1: –0.710 V
  Epc1: –0.607 V
  Epc2: –1.272 V vs Ag/Ag^+
Cyclic voltammetry; [8]
  E1/2: –1.076 V vs Fe/Fe^+
ABS parasites
  ABS (% inhibition) 1 µM: 10.6 % inhibition
  ABS (% inhibition) 5 µM: 29.9 % inhibition

## OCCN(CCO)C1=NC(c2ccccc2)=[O+][Pt-2]2([S]1)[n+]1ccccc1-c1cccc[n+]12.[Cl-] [C3]
PfNF54 ABS parasites
  IC50: 0.142 ± 0.012 µM
PfK1 ABS parasites
  IC50: 0.184 ± 0.022 µM
[1]
  EG (% inhibition) 1 µM: 26.9 % inhibition
  EG (% inhibition) 5 µM: 0.0 % inhibition
  IC50: > 20 µM
[2]
  LG (% inhibition) 1 µM: 14.8 % inhibition
  LG (% inhibition) 5 µM: 39.8 % inhibition
[2]; [7]
  IC50: > 20 µM
[3]
  IC50: > 50 µM
[4]
  Microsomal metabolic stability (% remaining after 30 min) Mouse: 75 % remaining
[5]
  Microsomal metabolic stability (% remaining after 30 min) Human: 72 % remaining
Cyclic voltammetry
  Epa1: –1.210 V
  Epc1: –1.014 V
ABS parasites
  ABS (% inhibition) 1 µM: 68.7 % inhibition
  ABS (% inhibition) 5 µM: 103.1 % inhibition

## CS(=O)(=O)c1ccc(-c2cnc(N)c(-c3ccc(C(F)(F)F)nc3)c2)cc1 [MMV390048, reference compound]
[6]; phosphate buffer, 25 °C, pH 6.5, aqueous buffer, thermodynamic from solid
  solubility at 24 h: < 5 µM
[4]; male, CD1, mouse liver microsomes, 30 min, read-out: Microsomal metabolic stability (% remaining after 30 min) Mouse
  remaining at 0.5 h, 1 µM: > 95%
[5]; both sexes, 30 min, read-out: Microsomal metabolic stability (% remaining after 30 min) Human
  remaining at 0.5 h, 1 µM: > 95%

## Cc1cc[n+]2c(c1)-c1cc(C)cc[n+]1[Pt-2]21[O+]=C(c2ccccc2)N=C(N(CCO)CCO)[S]1.[Cl-] [C2]
PfNF54 ABS parasites
  IC50: 1.42 ± 0.276 µM
PfK1 ABS parasites
  IC50: 0.541 ± 0.044 µM
  RI (resistance index): 0.4
[1]
  EG (% inhibition) 1 µM: 19.9 % inhibition
  EG (% inhibition) 5 µM: 7.9 % inhibition
  IC50: > 20 µM
[2]
  LG (% inhibition) 1 µM: 11.3 % inhibition
  LG (% inhibition) 5 µM: 25.5 % inhibition
[2]; [7]
  IC50: > 20 µM
[3]
  IC50: > 50 µM
[6]
  Aqueous solubility pH 6.5: 170 μM
[4]
  Microsomal metabolic stability (% remaining after 30 min) Mouse: 72 % remaining
[5]
  Microsomal metabolic stability (% remaining after 30 min) Human: 70 % remaining
Cyclic voltammetry
  Epa1: –1.074 V
  Epc1: –1.016 V
  Epc2: –1.084 V vs Ag/Ag^+
Cyclic voltammetry; half-wave potential
  E1/2: –1.045 V vs Ag/Ag^+
Cyclic voltammetry; [8]
  E1/2: –1.585 V vs Fe/Fe^+
ABS parasites
  ABS (% inhibition) 1 µM: 70.9 % inhibition
  ABS (% inhibition) 5 µM: 104.0 % inhibition

## [Cl][Pt-2]([Cl])([Cl])[Cl].[K+].[K+] [K2PtCl4, potassium tetrachloroplatinate]
PfNF54; maximum concentration of 5 μM, PfNF54
  inhibition of Pf proliferation: did not inhibit Pf proliferation
PfNF54; precursor compounds, 72 h pLDH assay, read-out: PfNF54 IC50
  IC50: > 5 µM
[3]
  IC50: > 50 µM

## COc1cc[n+]2c(c1)-c1cc(OC)cc[n+]1[Pt-2]21[O+]=C(c2ccccc2)N=C(N(CCO)CCO)[S]1.[Cl-] [C4]
PfNF54 ABS parasites
  IC50: 0.266 ± 0.029 µM
PfK1 ABS parasites
  IC50: 0.164 ± 0.007 µM
  RI (resistance index): 0.6
[1]
  EG (% inhibition) 1 µM: 6.8 % inhibition
  EG (% inhibition) 5 µM: 9.1 % inhibition
  IC50: > 20 µM
[2]
  LG (% inhibition) 1 µM: 14.8 % inhibition
  LG (% inhibition) 5 µM: 54.4 % inhibition
[2]; [7]
  IC50: > 20 µM
[3]
  IC50: > 50 µM
[6]
  Aqueous solubility pH 6.5: 195 μM
[4]
  Microsomal metabolic stability (% remaining after 30 min) Mouse: 88 % remaining
[5]
  Microsomal metabolic stability (% remaining after 30 min) Human: 63 % remaining
Cyclic voltammetry
  Epa1: –1.136 V
  Epc1: –1.064 V
  Epc2: –1.515 V vs Ag/Ag^+
Cyclic voltammetry; half-wave potential
  E1/2: –1.100 V vs Ag/Ag^+
Cyclic voltammetry; [8]
  E1/2: –1.640 V vs Fe/Fe^+
ABS parasites
  ABS (% inhibition) 1 µM: 67.1 % inhibition
  ABS (% inhibition) 5 µM: 99.8 % inhibition

Reference: PMC11912270, “Synthesis and SAR Studies of Acyl-Thiourea Platinum(II) Complexes Yield Analogs with Dual-Stage Antiplasmodium Activity” (ACS Medicinal Chemistry Letters, 2025)
